What was measured:
Bcl-xL = Bcl-xL (Homo sapiens, UniProt Q07817); experiment: Bcl-xL binding affinity analysis (fluorescence polarization binding assay); settings: read-out: BcI-XI (Ki, Bcl-xL binding affinity)
Description: (§1) Bcl-2 and Bcl-xL binding may be determined using a variety of known methods. One such assay is a sensitive and quantitative in vitro binding assay using fluorescence polarization (FP) described by Wang, J.-L.; Zhang, Z-J.; Choksi, S.; Sjam. S.; Lu, Z.; Croce, C. M.; Alnemri, E. S.; Komgold, R.; Huang, Z. Cell permeable Bcl-2 binding peptides: a chemical approach to apoptosis induction in tumor cells. Cancer Res. 2000, 60, 1498-1502).
(§2) Bcl-2 and Bcl-xL binding affinity analysis data is presented below for various compounds of the invention.

Bcl-2 = Bcl-2 (Homo sapiens, UniProt P10415); experiment: Bcl-2 binding affinity analysis (fluorescence polarization binding assay); settings: read-out: BcI2 (Ki, Bcl-2 binding affinity)
Sequence of Bcl-2 (P10415 whole entry): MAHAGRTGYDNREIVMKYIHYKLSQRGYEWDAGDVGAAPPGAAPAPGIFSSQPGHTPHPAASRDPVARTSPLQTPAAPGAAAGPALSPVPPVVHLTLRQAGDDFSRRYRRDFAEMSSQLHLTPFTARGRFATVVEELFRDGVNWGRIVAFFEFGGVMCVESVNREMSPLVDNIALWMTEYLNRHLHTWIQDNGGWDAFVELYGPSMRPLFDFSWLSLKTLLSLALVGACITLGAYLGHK
Description: as §1, §2

Sequence of Bcl-xL (Q07817 whole entry): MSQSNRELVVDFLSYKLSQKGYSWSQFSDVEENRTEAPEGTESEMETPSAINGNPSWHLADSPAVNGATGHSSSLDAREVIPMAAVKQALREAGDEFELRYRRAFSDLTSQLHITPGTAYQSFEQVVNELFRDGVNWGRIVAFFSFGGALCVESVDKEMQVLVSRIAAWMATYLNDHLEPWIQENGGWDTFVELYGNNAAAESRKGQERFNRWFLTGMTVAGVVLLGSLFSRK

SMILES	Ki (Bcl-xL) [µM]	Ki (Bcl-2) [nM]
COc1c(CN2O[C@@H](CN(C)C)[C@@H]([C@H](C)O)[C@H]2C(=O)N[C@H]2C[C@H]3C[C@@H]([C@@H]2C)C3(C)C)cccc1-c1cc(C(=O)NCCc2ccccc2)cc(N(C)C)c1 [Compound 80]	5 to 10	5 to 9
CNC(=O)c1cc(-c2cccc(CN3O[C@@H](CNCc4ccc(C(=O)O)cc4)[C@@H]([C@H](C)O)[C@H]3C(=O)N[C@H]3C[C@H]4C[C@@H]([C@@H]3C)C4(C)C)c2OC)cc(N(C)C)c1 [Compound 81]	> 10	> 9
CNC(=O)c1cc(-c2cccc(CN3O[C@@H](CNCc4ccncc4)[C@@H]([C@H](C)O)[C@H]3C(=O)N[C@H]3C[C@H]4C[C@@H]([C@@H]3C)C4(C)C)c2OC)cc(N(C)C)c1 [Compound 82]	> 10	> 9
CNC(=O)c1cc(-c2cccc(CN3O[C@@H](CNCc4cccc(C(=O)O)c4)[C@@H]([C@H](C)O)[C@H]3C(=O)N[C@H]3C[C@H]4C[C@@H]([C@@H]3C)C4(C)C)c2OC)cc(N(C)C)c1 [Compound 84]	> 10	> 9
CNC(=O)c1cc(-c2cccc(CN3O[C@@H](CNCc4ccccc4)[C@@H]([C@H](C)O)[C@H]3C(=O)N[C@H]3C[C@H]4C[C@@H]([C@@H]3C)C4(C)C)c2OC)cc(N(C)C)c1 [Compound 85]	5 to 10	> 9
COc1c(CN2O[C@@H](CN=C(N(C)C)N(C)C)[C@@H]([C@H](C)O)[C@H]2C(=O)N[C@H]2C[C@H]3C[C@@H]([C@@H]2C)C3(C)C)cccc1-c1cc(C(=O)NCCc2ccccc2)cc(N(C)C)c1 [Compound 86]	> 10	> 9
CNC(=O)c1cc(-c2cccc(CN3O[C@@H](CN)[C@@H]([C@H](C)OC(=O)N(C)C)[C@H]3C(=O)N[C@H]3C[C@H]4C[C@@H]([C@@H]3C)C4(C)C)c2OC)cc(N(C)C)c1 [Compound 87]	> 10	> 9
CNC(=O)c1cc(-c2cccc(CN3O[C@@H](CN)[C@@H]([C@H](C)OC(=O)NCCN(C)C)[C@H]3C(=O)N[C@H]3C[C@H]4C[C@@H]([C@@H]3C)C4(C)C)c2OC)cc(N(C)C)c1 [Compound 92]	> 10	> 9
CNC(=O)O[C@@H](C)[C@@H]1[C@H](CN)ON(Cc2cccc(-c3cc(C(=O)NC)cc(N(C)C)c3)c2OC)[C@@H]1C(=O)N[C@H]1C[C@H]2C[C@@H]([C@@H]1C)C2(C)C [Compound 93]	> 10	> 9
CCNC[C@@H]1ON(Cc2cccc(-c3cc(C(=O)NC)cc(N(C)C)c3)c2OC)[C@H](C(=O)N[C@H]2C[C@H]3C[C@@H]([C@@H]2C)C3(C)C)[C@@H]1[C@H](C)O [Compound 94]	> 10	1 to 5
CNC(=O)c1cc(-c2cccc(CN3O[C@@H](CNCC(C)C)[C@@H]([C@H](C)O)[C@H]3C(=O)N[C@H]3C[C@H]4C[C@@H]([C@@H]3C)C4(C)C)c2OC)cc(N(C)C)c1 [Compound 95]	5 to 10	5 to 9
CNC(=O)c1cc(-c2cccc(CN3O[C@@H](CNCC4CC4)[C@@H]([C@H](C)O)[C@H]3C(=O)N[C@H]3C[C@H]4C[C@@H]([C@@H]3C)C4(C)C)c2OC)cc(N(C)C)c1 [Compound 96]	5 to 10	5 to 9
CNC(=O)c1cc(-c2cccc(CN3O[C@@H](CNC(C)C)[C@@H]([C@H](C)O)[C@H]3C(=O)N[C@H]3C[C@H]4C[C@@H]([C@@H]3C)C4(C)C)c2OC)cc(N(C)C)c1 [Compound 97]	> 10	> 9
CNC(=O)c1cc(-c2cccc(CN3O[C@@H](CN(CC(C)C)CC(C)C)[C@@H]([C@H](C)O)[C@H]3C(=O)N[C@H]3C[C@H]4C[C@@H]([C@@H]3C)C4(C)C)c2OC)cc(N(C)C)c1 [Compound 98]	5 to 10	> 9
CNC(=O)c1cc(-c2cccc(CN3O[C@@H](CN(C)C)[C@@H]([C@H](C)O)[C@H]3C(=O)N[C@H]3C[C@H]4C[C@@H]([C@@H]3C)C4(C)C)c2OC)cc(N(C)C)c1 [Compound 99]	> 10	> 9
COc1c(CN2O[C@@H](CO)[C@@H]([C@H](C)O)[C@H]2C(=O)N[C@H]2C[C@H]3C[C@@H]([C@@H]2C)C3(C)C)cccc1-c1cc(C(=O)N[C@H](Cc2ccccc2)CN(C)C)cc(N(C)C)c1 [Compound 113]	< 1	< 1
COc1c(CN2O[C@@H](CO)[C@@H]([C@H](C)O)[C@H]2C(=O)N[C@H]2C[C@H]3C[C@@H]([C@@H]2C)C3(C)C)cccc1-c1cc(C(=O)NCCc2ccccc2)cc(N(C)C)c1 [Compound 126]	< 1	< 1
COc1c(CN2O[C@@H](CO)[C@@H]([C@H](C)O)[C@H]2C(=O)N[C@H]2C[C@H]3C[C@@H]([C@@H]2C)C3(C)C)cccc1-c1cc(C(=O)N[C@H](CN(C)C)[C@H](O)c2ccccc2)cc(N(C)C)c1 [Compound 136]	< 1	< 1
COc1c(CN2O[C@@H](CO)[C@@H]([C@H](C)O)[C@H]2C(=O)N[C@H]2C[C@H]3C[C@@H]([C@@H]2C)C3(C)C)cccc1-c1cc(C(=O)N[C@H](CN(C)C)[C@H](OC)c2ccccc2)cc(N(C)C)c1 [Compound 152]	< 1	< 1
CNC[C@H](Cc1ccccc1)NC(=O)c1cc(-c2cccc(CN3O[C@@H](CO)[C@@H]([C@H](C)O)[C@H]3C(=O)N[C@H]3C[C@H]4C[C@@H]([C@@H]3C)C4(C)C)c2OC)cc(N(C)C)c1 [Compound 165]	< 1	< 1
CCOc1c(CN2O[C@@H](CO)[C@@H]([C@H](C)O)[C@H]2C(=O)N[C@H]2C[C@H]3C[C@@H]([C@@H]2C)C3(C)C)cccc1-c1cc(C(=O)N[C@H](CN(C)C)CS(C)(=O)=O)cc(N(C)C)c1 [Compound 176]	1 to 5	1 to 5
CCOc1c(CN2O[C@@H](CO)[C@@H]([C@H](C)O)[C@H]2C(=O)N[C@H]2C[C@H]3C[C@@H]([C@@H]2C)C3(C)C)cccc1-c1cc(C(=O)N[C@@H](Cc2ccccc2)CN2CCCC2)cc(N(C)C)c1 [Compound 182]	< 1	< 1
COc1c(CN2O[C@@H](CO)[C@@H]([C@H](C)O)[C@H]2C(=O)N[C@H]2C[C@H]3CC([C@@H]2C)C3(C)C)ccc(Cl)c1-c1cc(C(=O)N[C@@H](CC(C)C)CN(C)C)cc(N(C)C)c1 [Compound 183]	1 to 5	1 to 5
COc1c(CN2O[C@@H](CO)[C@@H]([C@H](C)O)[C@H]2C(=O)N[C@H]2C[C@H]3C[C@@H]([C@@H]2C)C3(C)C)cccc1-c1cc(C(=O)N2CCN(C)C[C@@H]2Cc2ccccc2)cc(N(C)C)c1 [Compound 193]	1 to 5	1 to 5

Next, values leading:

Ki (Bcl-xL) [µM]	Ki (Bcl-2) [nM]	SMILES
> 10	> 9	CNC(=O)c1cc(-c2cccc(CN3O[C@@H](CNCc4ccccn4)[C@@H]([C@H](C)O)[C@H]3C(=O)N[C@H]3C[C@H]4C[C@@H]([C@@H]3C)C4(C)C)c2OC)cc(N(C)C)c1 [Compound 83]
> 10	> 9	CNC(=O)c1cc(-c2cccc(CN3O[C@@H](CN)[C@@H]([C@H](C)OC(=O)NCCc4ccccc4)[C@H]3C(=O)N[C@H]3C[C@H]4C[C@@H]([C@@H]3C)C4(C)C)c2OC)cc(N(C)C)c1 [Compound 91]
1 to 5	< 1	C[C@@H]1[C@@H](NC(=O)[C@@H]2[C@H]([C@H](C)O)[C@H](CO)ON2Cc2cccc(-c3cc(C(=O)N[C@@H](Cc4ccccc4)CN(C)C)cc(N(C)C)c3)c2OCCN(C)C)C[C@H]2C[C@@H]1C2(C)C [Compound 100]
< 1	< 1	COc1c(CN2O[C@@H](CNC(=O)CCC(=O)O)[C@@H]([C@H](C)O)[C@H]2C(=O)N[C@H]2C[C@H]3C[C@@H]([C@@H]2C)C3(C)C)cccc1-c1cc(C(=O)N[C@H](CN(C)C)CC(C)(C)C)cc(N(C)C)c1 [Compound 114]
< 1	< 1	COc1c(CN2O[C@@H](CNC(=O)CCN(C)C)[C@@H]([C@H](C)O)[C@H]2C(=O)N[C@H]2C[C@H]3C[C@@H]([C@@H]2C)C3(C)C)cccc1-c1cc(C(=O)N[C@H](CN(C)C)CC(C)(C)C)cc(N(C)C)c1 [Compound 115]
< 1	< 1	COc1c(-c2cc(C(=O)N[C@@H](Cc3ccccc3)CN(C)C)cc(N(C)C)c2)ccc(F)c1CN1O[C@@H](CN)[C@@H]([C@H](C)O)[C@H]1C(=O)N[C@H]1C[C@H]2C[C@@H]([C@@H]1C)C2(C)C [Compound 127]
< 1	< 1	COc1c(-c2cc(C(=O)N[C@H](CN(C)C)[C@H](O)c3ccccc3)cc(N(C)C)c2)ccc(F)c1CN1O[C@@H](CO)[C@@H]([C@H](C)O)[C@H]1C(=O)N[C@H]1C[C@H]2C[C@@H]([C@@H]1C)C2(C)C [Compound 143]
< 1	< 1	COc1c(CN2O[C@@H](CO)[C@@H]([C@H](C)O)[C@H]2C(=O)N[C@H]2C[C@H]3C[C@@H]([C@@H]2C)C3(C)C)cccc1-c1cc(C(=O)N[C@H](CN(C)C)[C@@H](NS(C)(=O)=O)c2ccccc2)cc(N(C)C)c1 [Compound 144]
< 1	< 1	COc1c(-c2cc(C(=O)N[C@H](CN(C)C)[C@@H](NS(C)(=O)=O)c3ccccc3)cc(N(C)C)c2)ccc(F)c1CN1O[C@@H](CO)[C@@H]([C@H](C)O)[C@H]1C(=O)N[C@H]1C[C@H]2C[C@@H]([C@@H]1C)C2(C)C [Compound 151]
< 1	< 1	COc1c(CN2O[C@@H](CO)[C@@H]([C@H](C)O)[C@H]2C(=O)N[C@H]2C[C@H]3C[C@@H]([C@@H]2C)C3(C)C)cccc1-c1cc(C(=O)N[C@H](CN2CCCC2)[C@H](O)c2ccccc2)cc(N(C)C)c1 [Compound 160]
1 to 5	1 to 5	COc1c(CN2O[C@@H](CO)[C@@H]([C@H](C)O)[C@H]2C(=O)N[C@H]2C[C@H]3C[C@@H]([C@@H]2C)C3(C)C)cccc1-c1cc(C(=O)N[C@@H](CN(C)C)CS(=O)(=O)C(C)(C)C)cc(N(C)C)c1 [Compound 170]

Reference: patent US8178690B2, “Compounds and methods for inhibiting the interaction of BCL proteins with binding partners” (Infinity Pharmaceuticals, Inc., priority 2006, dated 2012)
